{
  "source": "patent US20040116346A1",
  "about": "“Affinity small molecules for the EPO receptor” (priority 2002, published 2004)",
  "tested_on": "EPO-Receptor down stream signaling pathway in TF-1 or UT-7 cells",
  "test": "In vitro signaling (EPO-R activation)",
  "assay_type": "cell-based",
  "description": "UT-7 cells were grown in Minimal Essential Medium Alpha (MEM-α) containing 20% FBS, 1.5 g/L NaHCO3, 5 ng/ml GM-CSF, and 100U Penicillin/100 ug/ml Streptomycin Sulfate (“P/S”), in T150 flasks (60 ml/flask) at 37° C., 5% CO2 to a density of no more than 5×10^5 cells/ml. The cells were starved overnight in MEM-α containing 10% FBS, 1.5 g/L NaHCO3 and P/S in T150 flasks (60ml/flask) at a density of 5×10^5 cells/ml, in 5% CO2, 37° C. The cells were then centrifuged in a swinging-bucket rotor at 200×g for 5 minutes at room temperature. The supernatant was removed, and the cells pooled into one 50 ml conical tube. The cells were washed twice with serum-free medium (MEM-alpha containing 1.5 g/L NaHCO3 and P/S). After the last wash, the cells were resuspended to a density of 1×10^7 cells/ml in serum-free medium. The cells were then placed in 15 ml conical tubes in 1 ml aliquots and incubated with the caps loosened for 1 hour at 37° C., 5% CO2. Every 10 minutes, the lower portion of each tube was tapped (flicked) several times to prevent the cells from settling (please note, this step is very important!)\nIt was also observed that EPO-R was phosphorylated when stimulated with non-peptide EPO-R modulators. (See FIG. 4) […]",
  "data": [
    {"compound": "Cc1ccc(Cl)cc1Nc1nc2nc(C)c(NCC3CC3)cn2n1", "note": "[Compound E5]", "values": [
      {"measurement": "activation of EPO-R", "value": "activation of EPO-R"}
    ]}
  ]
}
